Holding throughout (format): cell-based
The target in assay [1] is T1, human cloned CHRM2 receptor (M2_CHO cells) (Homo sapiens, UniProt P08172).
T1 construct: expressed in transfected cells; host or cells: CHO-K1
T1 sequence (P08172 1-466): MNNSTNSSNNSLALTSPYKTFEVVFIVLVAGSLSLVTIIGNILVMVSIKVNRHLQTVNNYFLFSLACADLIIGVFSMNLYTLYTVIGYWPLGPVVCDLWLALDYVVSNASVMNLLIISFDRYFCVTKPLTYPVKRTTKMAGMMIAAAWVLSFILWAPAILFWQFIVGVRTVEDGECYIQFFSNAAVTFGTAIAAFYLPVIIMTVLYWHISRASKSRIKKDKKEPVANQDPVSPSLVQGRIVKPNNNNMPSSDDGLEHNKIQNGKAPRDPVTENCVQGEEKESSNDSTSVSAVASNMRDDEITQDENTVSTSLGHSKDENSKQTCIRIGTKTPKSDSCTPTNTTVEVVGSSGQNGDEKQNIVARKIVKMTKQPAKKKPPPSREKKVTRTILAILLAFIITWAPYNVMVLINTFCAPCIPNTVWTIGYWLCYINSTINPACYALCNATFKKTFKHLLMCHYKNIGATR
As to the kind of experiment: CHRM2 Ca++ Flux Assay (agonist mode, FDSS 7000EX). The settings on record: for Emax: Percent Activity measured to EC100 of Carbachol, read-out: M2 FDSS PA; for EC50: agonist mode, geometric mean if tested more than once, read-out: M2 FDSS EC50. The gist of the method: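 Response expressed as percent activity versus the Carbachol EC100, with curves fitted by four-parameter non-linear regression of triplicates. Stable M2_CHO cells were Ca++ dye-loaded and preincubated 60 min at room temperature in assay buffer containing 20 μM ATP; signal imaged for 3 minutes after compound.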

Assay [2] addresses T2, human cloned CHRM5 receptor (M5_CHO) (Homo sapiens, UniProt P08912).
T2 construct: expressed in transfected cells; host or cells: CHO (M5_CHO)
T2 sequence (P08912 1-532): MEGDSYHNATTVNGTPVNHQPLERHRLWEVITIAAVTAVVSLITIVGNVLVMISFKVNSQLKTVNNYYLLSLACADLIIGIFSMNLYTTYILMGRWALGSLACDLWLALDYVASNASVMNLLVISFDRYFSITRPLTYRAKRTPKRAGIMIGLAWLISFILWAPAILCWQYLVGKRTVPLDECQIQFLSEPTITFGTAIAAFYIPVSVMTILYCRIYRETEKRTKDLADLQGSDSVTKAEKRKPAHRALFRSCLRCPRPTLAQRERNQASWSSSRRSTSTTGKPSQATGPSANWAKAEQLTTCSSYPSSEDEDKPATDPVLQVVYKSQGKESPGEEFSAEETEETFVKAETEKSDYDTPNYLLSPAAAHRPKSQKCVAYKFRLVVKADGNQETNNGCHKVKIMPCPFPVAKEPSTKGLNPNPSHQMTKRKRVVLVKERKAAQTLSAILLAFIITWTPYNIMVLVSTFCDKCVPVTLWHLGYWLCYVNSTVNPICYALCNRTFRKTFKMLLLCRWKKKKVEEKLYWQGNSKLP
As to the kind of experiment: CHRM5 Ca++ Flux Assay (agonist mode, FDSS 7000EX). The settings on record: for Emax: Percent Activity measured to EC100 of Carbachol, read-out: M5 FDSS PA; for EC50: agonist mode, geometric mean if tested more than once, read-out: M5 FDSS EC50. The gist of the method:
(§1)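 Agonist responses are measured as calcium mobilization in CHO-K1 cells expressing human M3 or M5, tested over an 11-point dose range in triplicate. Percent activity is normalised to carbachol at EC100.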

For assay [3], the target named is T3, human cloned CHRM3 receptor (M3_CHO cells) (Homo sapiens, UniProt P20309).
T3 construct: expressed in transfected cells; host or cells: CHO-K1
Nature of the assay: CHRM3 Ca++ Flux Assay (agonist mode, FDSS 7000EX). Conditions: for Emax: Percent Activity measured to EC100 of Carbachol, read-out: M3 FDSS PA; for EC50: agonist mode, geometric mean if tested more than once, read-out: M3 FDSS EC50. The gist of the method: as §1

Our source for the Emax and EC50 values is patent publication US12122761B2, “2-azaspiro[3.4]octane derivatives as M4 agonists” (NOVARTIS AG, priority 2019, dated 2024).

T3 sequence (P20309 whole entry): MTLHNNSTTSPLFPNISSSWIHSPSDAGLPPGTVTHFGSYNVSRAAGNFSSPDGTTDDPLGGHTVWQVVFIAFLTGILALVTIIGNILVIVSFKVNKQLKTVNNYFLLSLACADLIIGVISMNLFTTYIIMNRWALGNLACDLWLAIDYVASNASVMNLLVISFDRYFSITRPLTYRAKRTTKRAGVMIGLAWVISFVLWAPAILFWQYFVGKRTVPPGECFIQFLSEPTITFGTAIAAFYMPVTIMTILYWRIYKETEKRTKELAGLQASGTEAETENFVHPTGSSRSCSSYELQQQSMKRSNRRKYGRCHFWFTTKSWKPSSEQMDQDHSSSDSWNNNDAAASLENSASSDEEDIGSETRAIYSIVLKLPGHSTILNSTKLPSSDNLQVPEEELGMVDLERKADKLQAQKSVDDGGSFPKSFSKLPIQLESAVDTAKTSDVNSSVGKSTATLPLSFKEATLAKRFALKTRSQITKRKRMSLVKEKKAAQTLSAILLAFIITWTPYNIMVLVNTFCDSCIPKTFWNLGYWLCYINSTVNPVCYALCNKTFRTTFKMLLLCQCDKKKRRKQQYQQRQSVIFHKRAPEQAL

In general, EC50 refers to the concentration that produces a half-maximal response. Regarding `O=C(C1COC1)N1CC2(CC[C@@H](N3CCC(c4ccc(F)cc4OC(F)F)CC3)C2)C1` [Example 6B, (R)-(6-(4-(2-(difluoromethoxy)-4-fluorophenyl)piperidin-1-yl)-2-azaspiro[3.4]octan-2-yl)(oxetan-3-yl)methanone], the Emax in assay [1], in assay [2] and in assay [3] was 0% in each case. Further, the EC50 in assay [2] and in assay [3] was above 25 µM each time.
With `CC(C)Oc1cc(F)ccc1C1CCN([C@@H]2CCC3(C2)CN(C(=O)C2COC2)C3)CC1` [Example 6D, (R)-(6-(4-(4-fluoro-2-isopropoxyphenyl)piperidin-1-yl)-2-azaspiro[3.4]octan-2-yl)(oxetan-3-yl)methanone], the Emax in assay [1], in assay [2] and in assay [3] was 0% in each case. Further, the EC50 in assay [2] and in assay [3] was above 25 µM throughout.
`O=C(N1CC2(CC[C@@H](N3CCC(c4ccccc4C4CCOCC4)CC3)C2)C1)C1(F)CC1` [Example 6E, (R)-(1-fluorocyclopropyl)(6-(4-(2-(tetrahydro-2H-pyran-4-yl)phenyl)piperidin-1-yl)-2-azaspiro[3.4]octan-2-yl)methanone]: the Emax in assay [1], in assay [2] and in assay [3] was 0% each time. The concentration giving a half-maximal response (EC50) in assay [2] and in assay [3] was above 25 µM in each case.
On to `O=C(C1COC1)N1CC2(CC[C@@H](N3CCC(c4ccccc4OC4CC4)CC3)C2)C1` [Example 7A, (R)-(6-(4-(2-cyclopropoxyphenyl)piperidin-1-yl)-2-azaspiro[3.4]octan-2-yl)(oxetan-3-yl)methanone], for which the Emax in assay [1] amounted to 55%; in assay [2], 0%; in assay [3], 9%. The EC50 in assay [1] is 0.142 µM; in assay [2], above 25 µM; in assay [3], 9.78 µM.
As to `CC(C)(F)COc1ccccc1C1CCN([C@@H]2CCC3(C2)CN(C(=O)C2COC2)C3)CC1` [Example 7B, (R)-(6-(4-(2-(2-fluoro-2-methylpropoxy)phenyl)piperidin-1-yl)-2-azaspiro[3.4]octan-2-yl)(oxetan-3-yl)methanone], the Emax was determined as 77% in assay [1], 0% in assay [2] and 0% in assay [3]. Besides, the EC50 in assay [1] is 0.651 µM; in assay [2] it was above 25 µM; in assay [3], above 25 µM.
With `O=C(C1COC1)N1CC2(CC[C@@H](N3CCC(c4ccccc4Oc4nccs4)CC3)C2)C1` [Example 7C, (R)-oxetan-3-yl(6-(4-(2-(thiazol-2-yloxy)phenyl)piperidin-1-yl)-2-azaspiro[3.4]octan-2-yl)methanone], the Emax in assay [1], in assay [2] and in assay [3] was 0% throughout. The concentration for a half-maximal effect (EC50) in assay [2] and in assay [3] was above 25 µM in each case.
Take `CC(C)(O)CCOc1ccccc1C1CCN([C@@H]2CCC3(C2)CN(C(=O)C2COC2)C3)CC1` [Example 7CC, (R)-(6-(4-(2-(3-hydroxy-3-methylbutoxy)phenyl)piperidin-1-yl)-2-azaspiro[3.4]octan-2-yl)(oxetan-3-yl)methanone]: the Emax amounted to 0% in assay [1], 9% in assay [2] and 0% in assay [3]. Besides, the figures for the EC50 in assay [2] and in assay [3] were 2.01 µM and above 25 µM, respectively.
With `N#CCCOc1ccccc1C1CCN([C@@H]2CCC3(C2)CN(C(=O)C2COC2)C3)CC1` [Example 7D, (R)-3-(2-(1-(2-(oxetane-3-carbonyl)-2-azaspiro[3.4]octan-6-yl)piperidin-4-yl)phenoxy)propanenitrile], the Emax was found to be 31% in assay [1], 16% in assay [2] and 0% in assay [3]. The values for the EC50 in assay [1], in assay [2] and in assay [3] were 0.092 µM, 2.2 µM and above 25 µM, respectively.
Take `O=C(C1COC1)N1CC2(CC[C@@H](N3CCC(c4ccccc4OCCOC(F)(F)F)CC3)C2)C1` [Example 7DD, (R)-oxetan-3-yl(6-(4-(2-(2-(trifluoromethoxy)ethoxy)phenyl)piperidin-1-yl)-2-azaspiro[3.4]octan-2-yl)methanone]: the results for the Emax in assay [1], in assay [2] and in assay [3] were 0%, 18% and 0%, respectively. For the same compound, the EC50 in assay [2] is 1.12 µM; in assay [3], above 25 µM.
For `O=C(C1COC1)N1CC2(CC[C@@H](N3CCC(c4ccccc4OC[C@@H]4CCOC4)CC3)C2)C1` [Example 7E, oxetan-3-yl((R)-6-(4-(2-(((R)-tetrahydrofuran-3-yl)methoxy)phenyl)piperidin-1-yl)-2-azaspiro[3.4]octan-2-yl)methanone], the values for the Emax in assay [1], in assay [2] and in assay [3] were 23%, 13% and 0%, respectively. Also, the EC50 in assay [1] was 0.141 µM; in assay [2] it was 1.56 µM; in assay [3] it was above 25 µM.
As to `O=C(C1COC1)N1CC2(CC[C@@H](N3CCC(c4ccccc4OCCOC4COC4)CC3)C2)C1` [Example 7EE, (R)-oxetan-3-yl(6-(4-(2-(2-(oxetan-3-yloxy)ethoxy)phenyl)piperidin-1-yl)-2-azaspiro[3.4]octan-2-yl)methanone], the Emax stood at 17% in assay [1], 0% in assay [2] and 0% in assay [3]. In addition, the 50% effective concentration (EC50) in assay [1] is 0.464 µM; in assay [2], above 25 µM; in assay [3], above 25 µM.
`CC(C)COc1ccccc1C1CCN([C@@H]2CCC3(C2)CN(C(=O)C2COC2)C3)CC1` [Example 7F, (R)-(6-(4-(2-isobutoxyphenyl)piperidin-1-yl)-2-azaspiro[3.4]octan-2-yl)(oxetan-3-yl)methanone]: the Emax in assay [1], in assay [2] and in assay [3] was 0% each time. The EC50 in assay [2] and in assay [3] was above 25 µM throughout.
For `O=C(C1COC1)N1CC2(CC[C@@H](N3CCC(c4ccccc4OC4CCCC4)CC3)C2)C1` [Example 7G, (R)-(6-(4-(2-(cyclopentyloxy)phenyl)piperidin-1-yl)-2-azaspiro[3.4]octan-2-yl)(oxetan-3-yl)methanone], the Emax in assay [1], in assay [2] and in assay [3] was 0% each time. Also, the EC50 in assay [2] and in assay [3] was above 25 µM in each case.
With `O=C(C1COC1)N1CC2(CC[C@@H](N3CCC(c4ccccc4OCCC(F)(F)F)CC3)C2)C1` [Example 7GG, (R)-oxetan-3-yl(6-(4-(2-(3,3,3-trifluoropropoxy)phenyl)piperidin-1-yl)-2-azaspiro[3.4]octan-2-yl)methanone], the Emax in assay [1] amounted to 9%; in assay [2], 14%; in assay [3] it was 0%. Further, the EC50 in assay [1] was 0.724 µM; in assay [2], 0.974 µM; in assay [3], above 25 µM.
Turning to `O=C(C1COC1)N1CC2(CC[C@@H](N3CCC(c4ccccc4OC4CCC4)CC3)C2)C1` [Example 7H, (R)-(6-(4-(2-cyclobutoxyphenyl)piperidin-1-yl)-2-azaspiro[3.4]octan-2-yl)(oxetan-3-yl)methanone], the Emax in assay [1], in assay [2] and in assay [3] was 0% throughout. For the same compound, the EC50 in assay [2] and in assay [3] was above 25 µM in each case.
Take `COC(C)(C)COc1ccccc1C1CCN([C@@H]2CCC3(C2)CN(C(=O)C2COC2)C3)CC1` [Example 7HH, (R)-(6-(4-(2-(2-methoxy-2-methylpropoxy)phenyl)piperidin-1-yl)-2-azaspiro[3.4]octan-2-yl)(oxetan-3-yl)methanone]: the Emax in assay [1] amounted to 16%; in assay [2], 0%; in assay [3], 0%. The concentration for a half-maximal effect (EC50) was 0.154 µM in assay [1], above 25 µM in assay [2] and above 25 µM in assay [3].
